One sequence from patent publication US8012944B2, “Method for treating cancer using IAP antisense oligomer and chemotherapeutic agent” (Pharmascience Inc., priority 2003, dated 2011) can be followed below.

In one data set the test system is H460 tumors. Briefly: Histopathology and ubiquitin immunohistochemistry of H460 tumors. The following applies: 15 mg/kg; day 21 or 24. Format: in vivo, SCID-RAG2 mice. As for the experimental part:
To evaluate whether XIAP AS oligonucleotide administration results in direct tumor cell kill, we examined the histology of tumors after treatment both for morphology and ubiquitin immunostaining (FIGS. 19A and 19B). At day 21 or 24 post-tumor inoculation, tumors treated with 15 mg/kg of G4 AS oligonucleotides, SC oligonucleotides, or saline control were excised, sectioned, and stained with hematoxylin and eosin.
The degradation of proteins is largely ubiquitin-proteasome-dependent; increased ubiquitin expression has been observed during apoptosis. Thus, we examined the ubiquitin expression in the tumors sections used for hematoxylin and eosin staining.
Mouse tumors were collected on day 21 or 24 post-tumor inoculation and treatment. One portion of the tumor tissue was fixed in formalin. Paraffin-embedded tissues were sectioned and subjected to gross histopathology using hematoxylin and eosin staining and immunohistochemistry for ubiquitin expression. The other portion of the tumor was homogenized in lysis buffer for western blot analysis (see above).

For data set [1], the system named is subcutaneous H460 human non-small-cell lung tumor xenografts. In words: Systemic (i.p.) oligonucleotides with or without vinorelbine in H460 xenografts. The following applies: for mean tumor size: day 24, control 0.75. Format: in vivo, SCID-RAG2 mice. As for the experimental part: Initial systemic PS-oligonucleotide studies were designed without any chemotherapeutic agents. SCID-RAG2 mice were inoculated with H460 human lung carcinoma cells (s.c. shoulder injection of 10^6 cells) and treatments with G4 and F3 AS PS-oligonucleotides, as well as a scrambled control, were initiated three days after tumor inoculation. Nucleobase oligomer injections were administered i.p. at 12.5 mg/kg three times a week for three weeks. At the end of the treatment period, mean tumor sizes in the groups treated with either G4 or F3 AS oligonucleotides were ˜50% smaller than in the group treated with a scrambled control oligonucleotides (FIG. 15). The same treatment protocol was tested on female SCID-RAG2 mice inoculated orthotopically with MDA-MB-435/LCC6 human breast carcinoma cells. Two weeks after the last treatment (day 35) tumor volumes of mice treated with F3, C5 or G4 AS oligonucleotides were 70%, 60%, and 45%, respectively, smaller than vehicle controls (FIG. 16).
We conducted additional examination of the antitumor effects of G4 AS oligonucleotides in SCID-RAG2 mice bearing xenografts of H460 human non-small-cell lung tumors implanted subcutaneously. Saline-treated control tumors grew reproducibly to a size of 0.75 cm^3 within approximately 24 days (FIG. 17). Oligonucleotide treatments were initiated three days after tumor cell inoculation. G4 AS oligonucleotides (5 to 15 mg/kg) were administered using a treatment schedule of i.p. injections given once a day on days 3-7, 10-14, and 17-21. The treatment with 5 or 15 mg/kg G4 AS oligonucleotides greatly delayed tumor growth: on day 24 mean tumor sizes were 0.75, 0.45 and 0.29 cm^3 in control, 5 and 15 mg/kg treated groups, respectively (FIG. 18A). There was a dose-dependent inhibition of tumor growth. […] A dose of 15 mg/kg was selected for the future combination treatment regimens with anticancer drugs.
The human non-small cell lung cancer cell line (large cell type) NCI-H460 (H460) was obtained from ATCC and maintained in RPMI 1640 supplemented with 10% FCS at 37° C. in a humidified atmosphere containing 5% CO2. Cells were used in exponential growth phase, up to a maximum of 25 in vitro passages. Male SCID-RAG2 mice (7-9 weeks old, 23-26 g) were obtained from British Columbia Cancer Agency Joint Animal Facility breeding colony and kept in aseptic environments. A tumor model of NCI-H460 cells in SCID-RAG2 mice was established by subcutaneous implantation of 1×10^6 NCI-H460 cells on the back of mice.
Efficacy experiments were conducted in male RAG2 immunodeficient mice bearing NCI-H460 tumours or female RAG2 mice bearing LCC6 tumors. Treatments were commenced on day 3 after tumor inoculation. Saline (controls), G4 AS oligonucleotides (5 or 15 mg/kg), or G4 SC oligonucleotides (5 or 15 mg/kg) were administered i.p. daily for five doses a week over a three week regimen. Vinorelbine (VNB, 5 or 10 mg/kg) was administered i.v. via the tail vein, either alone or in combination with oligonucleotides, at day 3, 7, 11 and 17 after tumor inoculation. When oligonucleotides were administered in combination with VNB, the drug treatment was performed four hours after ODN treatment.
Mice were observed daily. Body weight measurements and signs of stress (e.g., lethargy, ruffled coat, ataxia) were used to detect possible toxicities. Animals with ulcerated tumor, or tumor volumes of 1 cm^3 or greater were killed. Digital caliper measurements of tumors were converted into mean tumor size (cm^3) using the formula: ½[length (cm)]×[width (cm)]^2. An average tumor size per mouse was used to calculate the group mean tumor size±SE (n=6 mice) from at least two independent experiments per group.

As for “GCTGAGTCTCCATATTGCC [G4 AS] (chemistry not given here)”, the “tumor histology (hematoxylin and eosin)” value in the data set on H460 tumors is “increased number of dead cells”. In data set [1] (15 mg/kg i.p.), the “tumor size as % of control mean tumor size” value is reported as 39% and the mean tumor size amounted to 0.29 cm^3. Further, in data set [1] (PS-oligonucleotides 12.5 mg/kg i.p. three times a week for three weeks, end of treatment), the “mean tumor size smaller than scrambled control group” value is recorded as roughly 50%. Also, the mean tumor size in data set [1] (5 mg/kg i.p.) is on record as 0.45 cm^3. Besides, in data set [1] (systemic, oligonucleotide 15 mg/kg i.p., VNB 5 or 10 mg/kg i.v.), the “antitumor efficacy on H460 xenografts (in words)” value is “significant sequence-specific growth inhibitory effects”.
